Test results reported in patent publication US20160369234A1, “CONVERSION OF SOMATIC CELLS TO INDUCED REPROGRAMMED NEURAL STEM CELLS (IRNSCS)” (Hoffmann-La Roche Inc., priority 2010, published 2016).

Legend:
Format in all cases: cell-based
[1] = system: Human fibroblasts IMR90; assay: Generation of GFP+ irNSC neurospheres, Fasudil versus Balanol-like-324 compound in induction medium (FIG. 11)
Experimental: FIG. 11: Comparison of Fasudil versus Balanol-like-324 compound stimulation to generate irNSC neurospheres. Human fibroblasts IMR90 were trypsinized and infected in a small volume with: Sox2, Bmi1, nestin GFP reporter using the induction medium (NeuroCult® NS-A Proliferation Kit (Human, StemCells Technologies) with FGF, EGF BDNF 20 ng/ml; Heparin 2 μg/ml; Polybrene 4 μg/ml) supplemented with Fasudil 10 μM (hatched graph) or Balanol-like-324 compound 2 μM (black graph). Fibroblasts were plated in a normal tissue culture plate at a concentration of 10000-30000 cells/cm^2. Day 1: Media change with fresh induction medium. Day 4: The GFP+ neurospheres bigger than 50 μm were counted.
Induction Medium: N2B27 (N2B27 is a 1:1 mixture of DMEM/F12 (Gibco, Paisley, UK) supplemented with N2 and B27 (both from Gibco) supplemented with human EGF (Peprotech) 30 ng/ml, human FGF2 30 ng/ml (Peprotech), human BDNF (Roche) 20 ng/ml and Fasudil (Calbiochem) 10 μM or Balanol-like-324 compound (N-{(3R,4R)-4-[4-(2-Fluoro-6-hydroxy-3-methoxy-benzoyl)-benzoylamino]-azepan-3-yl}-4-hydroxy-3,5-dimethyl-benzamide) 2 μM.
1. Generation of the irNSCs: • 200.000 IMR90 human fibroblasts infected with the lentiviruses for different genes combination (multiplicity of infection (M.O.I.) used for each single lentivirus 30) and the reporter nestin GFP lentivirus (M.O.I. used 10) in an eppendorf with 300 μl induction medium with polybrene (hexadimethrine bromide, Sigma) 4 μg/ml. • Incubate at room temperature for 15 min. • Plate the 300 μl in 1.7 ml induction medium in a well of a 6-well-plate tissue treated • Day 1, renew the 2 ml of induction medium/each well • Day 3, harvest of the neurospheres collecting carefully the 2 ml with the floating spheres • Expand the neurospheres2. […]

[2] = system: human fibroblasts; assay: Reprogramming of human fibroblasts to irNSCs with or without Fasudil in induction medium, neurosphere count (FIG. 6); details: Fasudil added to induction medium, nestin reporter lentivirus; day 3
Description: The method can be illustrated by reference to FIG. 1 herein, which depicts a method according to the invention being used for converting human fibroblasts to neural stem cells (NSCs). In this method human fibroblast were trypsinized at day 0, counted and their viability determined. Between 1.0×10^5-3.0×10^5 trypsinized fibroblasts were then resuspended in the induction medium and the combination of genes delivered as lentiviruses. At the induction medium polybrene (hexadimethrine bromide) was added to increase the efficiency of the lentiviruses transduction. The infection was performed for 15 minutes in an eppendorf tube. In combination with the genes, a human Nestin GFP reporter was used. Nestin is a well known marker expressed specifically in NSCs. In the nestin reporter the fluorescent protein GFP is under expression of the human nestin promoter (FIG. 2), therefore it allows an easy screen for induced reprogrammed neural stem cells (irNSCs) GFP+.
The infected cells were plated in tissue culture plates using a concentration of 10000-30000 cells/cm^2 in the appropriate volume of induction medium. At day 1 the total induction medium was renewed. It was possible to identify some irNSC GFP+ (FIG. 3) with a clear change in morphology compared to the human fibroblasts. The irNSCs GFP+ acquired a bipolar and elongated morphology with a more condensed cytoplasm, typical of NSCs. […]

[3] = system: irNSC neurospheres from human fibroblasts IMR90; assay: Expansion of irNSC neurospheres with or without Fasudil in expansion medium (FIG. 9); details: expansion medium with Fasudil vs without; Day 15
Experimental: FIG. 9: Generation of a batch of irNSC neurospheres for expansion and characterization. 3.6 million human fibroblasts IMR90 were trypsinized and infected in a small volume with: Sox2, Bmi1, nestin GFP reporter using the induction medium (N2B27 with FGF, EGF 30 ng/ml BDNF 20 ng/ml) supplemented with Fasudil 10 μM and Polybrene 4 μg/ml. From Day 4 to Day 8: The GFP+ neurospheres bigger than 50 μm were harvested and further used for expansion. Half of the neurospheres have been expanded using the expansion medium (N2B27 with FGF, EGF 30 ng/ml BDNF 20 ng/ml) with Fasudil and the other half without Fasudil.
The irNSCs have a typical NSC morphology and were Sox2 and Nestin positive (FIG. 10).
Expansion Medium: N2B27 supplemented with human EGF (Peprotech) 30 ng/ml, human FGF2 30 ng/ml (Peprotech), human BDNF (Roche) 20 ng/ml, or
1. […]

[4] = system: Human fibroblasts IMR90; assay: Pre-treatment of human fibroblasts with Valproic Acid before infection, yield of GFP+ irNSC neurospheres (FIG. 12); details: VPA 1 mM pre-treatment 48 hours vs without; Day 7; n=3
Experimental: FIG. 12: Pre-treatment of human fibroblasts with Valproic Acid (VPA) improves the yield of GFP+ irNSC neurospheres. Human fibroblasts IMR90 were pre-treated for 48 hours with or without the HDAC inhibitor Valproic Acid (2-propyl-pentanoic acid, monosodium salt) (1 mM) prior infection with: Sox2, Bmi1, nestin GFP reporter. Induction medium (NeuroCult® NS-A Proliferation Kit (Human, StemCells Technologies) with FGF, EGF BDNF 20 ng/ml; Heparin 2 μg/ml; Balanol-like-324 2 μM). Day 7: The Neurospheres bigger than 50 μm were counted (Panel A) and the average number of GFP+ irNSC per neurosphere is reported (Panel B). Representative pictures for the irNSCs neuropheres generated with the VPA pre-treatment (Panel C).
To increase the yield of irNSCs, human fibroblasts were pretreated with or without the HDAC inhibitor Valproic Acid (VPA, 2-propyl-pentanoic acid, monosodium salt). Towards this end, the human fibroblasts were incubated in DMEM/F12 supplemented with FBS 10% and L-glutamine supplemented with 1 mM VPA prior to infection (FIG. 12).

## COc1ccc(O)c(C(=O)c2ccc(C(=O)N[C@@H]3CCCNC[C@H]3NC(=O)c3cc(C)c(O)c(C)c3)cc2)c1F [Balanol-like-324 compound, N-{(3R,4R)-4-[4-(2-Fluoro-6-hydroxy-3-methoxy-benzoyl)-benzoylamino]-azepan-3-yl}-4-hydroxy-3,5-dimethyl-benzamide]
[1]; Balanol-like-324 2 μM vs Fasudil 10 μM, Day 4, STDEV, n=3
  reproducibility of neurosphere generation versus Fasudil: better reproducibility
[1]; Balanol-like-324 2 μM vs Fasudil 10 μM, Sox2, Bmi1, nestin GFP reporter, Day 4, n=3
  increase in efficiency of the neurospheres generation (GFP+ neurospheres bigger than 50 μm) versus Fasudil: ~1.9 fold
[1]; FIG. 11, Rock kinase inhibitor in induction medium
  yield of GFP+ neurospheres: increases the yield

## O=S(=O)(c1cccc2cnccc12)N1CCCNCC1 [Fasudil, 1-(5-Isoquinolinesulfonyl)homopiperazine]
[2]
  generation of neurospheres: generation of neurospheres (around 50 μm)
[3]
  neurosphere morphology: better morphology and clear and sharp borders

## CCCC(CCC)C(=O)[O-].[Na+] [VPA, 2-propyl-pentanoic acid, monosodium salt]
[4]
  increase in number of GFP+ irNSCs per neurosphere: 2.1 fold
  number of neurospheres bigger than 50 μm: did not significantly affect
